Test results: patent publication US20160030364A1, “Therapeutic Compositions and Uses Thereof” (MANUKA HEALTH NEW ZEALAND LIMITED, priority 2013, published 2016)

Legend:
Assay type in all cases: cell-based
[1] = test system: human colorectal adenocarcinoma cells (DLD-1); assay: MTT anti-proliferative assay, DLD-1 (Examples 3-12); details: 200 μg/ml; for % stim. / Mean OD (570 nm) / % inhibition: 48 hours; for inhibition at 200 µg/mL: Homo sapiens, DLD-1, 48 h
Experimental: (§1) 5-phenylpenta-2,4-dienoic acid was assessed for its ability to modulate the viability and proliferation of human colorectal adenocarcinoma cells (DLD-1); human colon cancer cell line (HCT-116); human gastric carcinoma cell line (NCI-N87); and human oesophageal squamous cell carcinoma cell line (KYSE-30) as assessed by the MTT assay. The positive control, 5-fluorouracil (5-FU) was included at three concentrations; in addition to an unsupplemented cell control as a negative control in the study. The 5-phenylpenta-2,4-dienoic acid was a genuine standard with chemical structure confirmed by NMR and MS.
(§2) The four human gastrointestinal carcinoma cell lines were revived from cryostorage and cultured in the presence of the test and reference samples. An MTT assay was then performed on the cultures to determine the effect of the samples on the cell viability and proliferation.
(§3) The test sample 5-phenylpenta-2,4-dienoic acid, and all other test samples in Examples 4-12 (except tectochrysln) were Initially dissolved in pure ethanol to a concentration of around 13.35 mg/ml. Tectochrysin was initially dissolved in triethylene glycol mono-methyl ether to the same concentration. Working solutions were then prepared from the stock solutions by dilution to 15% ethanol/Hanks Balanced Salt Solution (ETOH)/HBSS to a concentration of 2 mg/mL solids. In the assay the final concentration of the samples was 200 μg/ml with a final EtOH concentration of 1.5%. Final concentrations of test compounds and propolis prepared as above are as noted in Example 3.
(§4) • 1. Human colorectal adenocarcinoma cells (ATCC CCI-221, DLD-1)(ATCC, Bethesda, Md., USA) • 2. Human gastric carcinoma cells (ATCC CRL-5822, NCI-N87)(ATCC, Bethesda, Md., USA) • 3. Human oesophageal squamous cell carcinoma (ECACC, KYSE-30)(Sigma Aldrich, Auckland, NZ) • 4. Human colon carcinoma cells (ECACC HCT-116)(Sigma Aldrich, Auckland, NZ) • 5. Penicillin-streptomycin solution: 10000 units/ml penicillin, 10 mg/ml streptomycin in 0.9% NaCl (Sigma Cat #P-0781). Stored at −20° C. • 6. For DLD-1 cells: DMEM culture medium (Invitrogen Cat #12100-046). Stored at 4° C. • 7. For NCI-N87 cells: RPMI-1640 medium modified to contain 2 mM L-glutamine, 10 mM HEPES, 1 mM sodium pyruvate, 4500 mg/L glucose, and 1500 mg/L sodium bicarbonate (Sigma R6504). Stored at 4° C. • 8. For KYSE-410 cells: RPMI-1640 medium modified to contain 2 mM L-glutamine (Sigma R6504). Stored at 4° C. • 9. For HCT-116 cells: McCoy's 5A medium modified to contain 2 mM L-glutamine (Sigma M48792). Stored at 4° C. • 10. Trypsin-EDTA solution: 0.25% Trypsin/EDTA, Invitrogen Cat#15400054 (×10 in stock). • 11. Phosphate buffered saline (PBS) (Prepared by TBL). • 12. Hanks Balanced Salt Solution (HBSS). (GIBCO Cat No. 14185-052). Stored at 4° C. • 13. Foetal Bovine Serum (GIBCO Cat #10091-148). Stored at −20° C. • 14. MTT Reagent: 100 mg/vial, (SIGMA Cat. No. M-2128) dissolved in PBS at 10 mg/ml and stored at −20° C. 5 mg/ml MTT solution will be prepared in PBS and stored at 4° C. as working solution. • 15. MTT lysis buffer: 10% sodium dodecyl sulphate (SDS)/45% Dimethyl Formamide (20 g SDS will be dissolved in 100 ml of double-distilled water (DDW), and 90 ml of Dimethyl Formamide will be added to the SDS solution). The pH will be adjusted to 4.7 by glacial acetic acid, and DDW added up to a final volume of 200 ml. • 16. 5-Fluorouracil (5-FU), (Sigma Cat. No. F-6627). Three working solutions will be prepared at 19.5 μg/ml. 6.5 μg/ml and 1.95 μg/ml dissolved in 15% Ethanol/HBSS. Final concentrations will be 1.95 μg/ml (15 μM), 0.65 μg/ml (5 μM) and 0.195 μg/ml (1.5 μM).
(§5) The medium for the propagation of the each of the cells lines is given above. Each medium was prepared following the ATCC/ECACC instructions and supplemented with penicillin-streptomycin solution (10 ml per litre). FBS (at 10%) was added just before use.
• 1. […]

[2] = test system: human colon cancer cell line (HCT-116); assay: MTT anti-proliferative assay, HCT-116 (Examples 3-12); details: 200 μg/ml; for % inhibition / % stim. / Mean OD (570 nm): 48 hours; for inhibition at 200 µg/mL: Homo sapiens, HCT-116, 48 h
Experimental: as §1, §2, §3, §4, §5
• 1. […]

[3] = test system: human gastric carcinoma cell line (NCI-N87); assay: MTT anti-proliferative assay, NCI-N87 (Examples 3-12); details: 200 μg/ml; for % stim. / Mean OD (570 nm) / % inhibition: 48 hours; for inhibition at 200 µg/mL: Homo sapiens, NCI-N87, 48 h
Experimental: as §1, §2, §3, §4, §5
• 1. […]

[4] = test system: human oesophageal squamous cell carcinoma cell line (KYSE-30); assay: MTT anti-proliferative assay, KYSE-30 (Examples 3-13); details: Examples 3-12, 200 μg/ml, 48 hours; for inhibition at 200 µg/mL: Homo sapiens, KYSE-30, 48 h
Experimental: as §1, §2, §3, §4, §5
• 1. […]

[5] = test system: human colorectal adenocarcinoma cells (DLD-1); assay: MTT proliferation assay, DLD-1 (Examples 1-2); details: Example 2, DLD-1, sample 200 μg/mL, 24 hours incubation; for inhibition at 200 µg/mL: Homo sapiens
Experimental: (§6) Test samples shown below in Table 2 were assessed for their ability to modulate the viability and proliferation of human colorectal adenocarcinoma cells (DLD-1) as assessed by the MTT assay. A positive control, 5-fluorouracil (5-FU) was included in addition to an unsupplemented cell control (negative control) in the study. The test samples were obtained by fractionation of propolis tincture.
as §6, with “study.” for “study. The test samples were obtained by fractionation of propolis tincture.”
Human colorectal adenocarcinoma epithelial cell lines were revived from cryostorage and cultured in the presence of the test and reference samples. The culture conditions for the cells were those described by the supplier of the cells (ATCC). An MTT assay was then performed on the cultures to determine the effect of the samples on the cell proliferation.
Working solutions were prepared by dissolving the test fractions in 15% ethanol (ETOH)/HBSS to a concentration of 2 mg/mL solids.
• 1. Human colorectal adenocarcinoma cells (ATCC CCI-221, DLD-1). • 2. Penicillin-streptomycin solution: 10000 units/mL penicillin, 10 mg/mL streptomycin in 0.9% NaCl (Sigma Cat #P-0781). Stored at −20° C. • 3. DMEM culture medium (Invitrogen Cat #12100-046) Stored at −20° C. • 4. Trypsin-EDTA solution: 0.25% Trypsin/EDTA, Invitrogen Cat#15400054 (×10 in stock). • 5. Phosphate buffered saline (PBS) (Prepared by TBL). • 6. Hanks Balanced Salt Solution (HBSS). (GIBCO Cat No. 14185-052). Stored at 4° C. • 7. Foetal Bovine Serum (GIBCO Cat #10091-148). Stored at −20° C. • 8. MTT Reagent: 100 mg/vial, (SIGMA Cat. No. M-2128) dissolved in PBS at 10 mg/mL and stored at −20° C. 5 mg/mL MTT solution were prepared in PBS and stored at 4° C. as working solution. • 9. MTT lysis buffer: 10% sodium dodecyl sulphate (SDS)/45% Dimethyl Formamide (20 g SDS was dissolved in 100 mL of double-distilled water (DDW), and 90 mL of Dimethyl Formamide added to the SDS solution). The pH was adjusted to 4.7 by glacial acetic acid, and DDW added up to a final volume of 200 mL. • 10. 5-Fluorouracil (5-FU), (Sigma Cat. No. F-6627). Two working solutions were prepared at 150 ng/mL and 75 ng/mL, dissolved in 15% Ethanol/HBSS. Final concentrations were 7.50 ng/mL and 3.75 ng/mL.
The medium for the propagation of the colorectal adenocarcinoma (DLD-1) cells was DMEM, supplemented with penicillin-streptomycin solution (10 mL per litre). FBS was added just before use to give 10% w/v.
• 1. The human colorectal adenocarcinoma cells (DLD-1) obtained from the American Type Culture Collection USA were revived from cryostorage. • 2. Following initial propagation using the media described above (see Medium Preparation), the culture was subcultured using the trypsin-EDTA as follows. The media was removed and 5 mL of the trypsin-EDTA solution added and incubated at 37° C. for 5 min or until all the cells had detached. The trypsin was neutralised by adding an equal volume of DMEM medium and the culture centrifuged at 300 g (1200 rpm) for 5 min at 4° C. • 3. The supernatant was decanted and the cell pellets resuspended in medium DMEM, FBS (10%), penicillin (100 units/mL), streptomycin (100 μg/mL). The cells were cultured at 37° C. in 5% CO2/95% air. • 4. After reaching confluence, the cells were detached using trypsin-EDTA and centrifuged as described in 2 above. • 5. The supernatants were discarded and the cells resuspended in DMEM and supplements as described in 3 above at 1.0×10^4 cells per mL. • 6. Into each well of three 96 well plates, 180 μl of the cells (1,800 cells/well) or medium was added. The plates were incubated at 5% CO2/95% air at 37° C. for 48 h which was sufficient to allow the cells to adhere. • 7. To each well, 20 μl of each, of the test samples or positive control was added. […]

[6] = listed as Pinobanksin 3-O-acetate

Compound | % stim. [1] [%] | Mean OD (570 nm) [1] | % inhibition [2] [%] | % stim. [2] [%] | Mean OD (570 nm) [2] | % stim. [3] [%] | Mean OD (570 nm) [3] | % inhibition [4] [%] | % stim. [4] [%] | Mean OD (570 nm) [4] | inhibition at 200 µg/mL [5] [%] | Mean OD (570 nm) [5] | other results
O=C(O)C=CC=Cc1ccccc1 [5-phenylpenta-2,4-dienoic acid] | 0 | 0.2329 | 36.43 | 0 | 0.3232 | 0 | 0.2537 | 37.55 | 0 | 0.3758 |  |  | inhibition at 200 µg/mL [1]: 43.5%; inhibition at 200 µg/mL [2]: 36.4%; inhibition at 200 µg/mL [3]: 42.6%; inhibition at 200 µg/mL [4]: 37.6%
O=C(/C=C/c1ccc(O)c(O)c1)OCCc1ccccc1 [CAPE, Caffeic acid phenethyl ester] |  |  |  |  |  |  |  |  |  |  | 76 |  | 
O=C(O)/C=C/c1ccc(O)c(O)c1 [Caffeic acid] |  |  |  |  |  |  |  |  |  |  | 96.5 | 0.0113 | 
O=c1cc(-c2ccccc2)oc2cc(O)cc(O)c12 [Chrysin] |  |  |  |  |  |  |  |  |  |  | 61.9 |  | 
O=c1c(O)c(-c2ccccc2)oc2cc(O)cc(O)c12 [Galangin] |  |  |  |  |  |  |  |  |  |  | 56.5 |  | 
COc1cc(O)c2c(c1)OC(c1ccccc1)CC2=O (stereo not shown) [Pinocembrin 7-methyl ether] |  |  |  |  |  |  |  |  |  |  |  | 0.3151 | % inhibition [5]: 2.71%; % inhibition ([5]; listed as #38 Pinocembrin 7-methyl ether): 2.7%
O=C(O)/C=C/c1ccccc1 [Trans-Cinnamic acid] |  |  |  |  |  |  |  |  |  |  | 26.2 | 0.2390 | 
COc1ccc(/C=C/C(=O)OCc2ccccc2)cc1O [benzyl isoferulate] | 0 | 0.0379 | 94.81 | 0 | 0.0264 | 0 | 0.0885 | 95.82 | 0 | 0.0251 |  |  | % inhibition [1]: 90.81%; inhibition at 200 µg/mL [1]: 90.8%; inhibition at 200 µg/mL [2]: 94.8%; % inhibition [3]: 79.95%; inhibition at 200 µg/mL [3]: 80%; inhibition at 200 µg/mL [4]: 95.8%
CC(=O)O[C@H]1C(=O)c2c(O)cc(O)cc2O[C@@H]1c1ccccc1 [pinobanksin 3-O-acetate, pinobanksin-3-acetate] | 0 |  | 90.61 | 0 | 0.0477 | 0 | 0.2287 | 68.01 | 0 |  |  |  | % inhibition [1, 6]: 75.4%; % inhibition [2, 6]: 90.6%; % inhibition [3]: 48.22%; % inhibition [3, 6]: 48.2%; % inhibition [4, 6]: 68.0%
COc1cc(O)c(C(=O)/C=C/c2ccccc2)c(O)c1 [pinostrobin chalcone] | 0 | 0.069 | 51.2 | 0 | 0.2482 | 5.5 | 0.4659 | 45.0 | 0 | 0.3312 |  |  | % inhibition [1]: 83.3%
